Measured values as given in patent US4149007A, “C14 Phenyl-substituted derivatives of prostaglandin analogues” (Miles Laboratories, Inc., priority 1977, dated 1979).

What was measured:
tracheal smooth muscle = settings: in vitro, most mammalian respiratory tracts; cited from earlier work
[1] = system: smooth muscle of the vas deferens; settings: cited from earlier work
blood platelets = settings: in vitro; cited from earlier work
growth hormone = settings: rats; cited from earlier work
adrenal glands = settings: hypophysectomized rats; cited from earlier work
human platelet [2] = settings: compared with compounds of Formula IV; cited from earlier work
[3] = system: motor pathways in the central nervous system; settings: cited from earlier work
rat uterus = experiment: Effects on the rat uterus in vitro; type: cell-based; settings: dose producing response 50% that of carbachol
Method: (B) effect on the rat uterus in vitro;
The uterine stimulant effect of test compounds was determined in segments of uterus obtained from rats (140-160 g) pretreated subcutaneously with 1 mg/kg of diethylstilbesterol 18 hours before the experiment. The tissues were placed in 10 ml chambers filled with de-Jalon solution at 29° C., were aerated and bubbled with 95% O2 and 5% CO2, and were prepared for isometric recording with force displacement transducers. Preparations were stretched to an initial tension of 1 g and were left undisturbed for 30 minutes. Carbachol (1 mcg/ml) was then added to the bath and a response was recorded. After a ten minute interval the carbachol procedure was repeated. Responses to increasing concentrations of a test compound (0.001 to 10 mcg/ml with one log intervals) were then recorded every 10 minutes. Preparations were washed four times after each response. All doses of compounds were administered in a 0.1 ml volume. Because it has been observed that the magnitude of the second response to carbachol (approximately 10% greater than the first) is close to the maximal response of the tissue, such value was taken as a measure of the sensitivity of a particular segment. Responses to each concentration of the test compound were expressed in terms of percentage of the second response to carbachol and the ED50 (dose producing a response 50% that of carbachol) was calculated graphically.
Activity was scored according to the following scale: […]

human platelet [4] = experiment: Inhibition of human platelet aggregation in vitro; type: cell-based; settings: human platelet rich plasma, collagen-induced
Method: (E) effect on human platelet aggregation in vitro; and
The ability of test compounds to inhibit platelet aggregation was determined by a modification of the turbidometric technique of Born, G. V. R. (Nature, 194: 927 [1962]). Blood was collected from human volunteers, who had not ingested aspirin or aspirin-containing products within the preceding two weeks, in heparinized containers and was allowed to settle for one (1) hour. The platelet rich plasma (prp) supernates were collected and pooled. Siliconized glassware was used throughout.
In a representative assay, 1.9 ml of PRP and 0.2 ml of test compound at the appropriate concentration ([…]), or 0.2 ml of distilled water (control procedure) were placed in sample cuvettes. The cuvettes were placed in a 37° C. incubation block for 15 minutes, and then in a spectrophotometer linked to a strip chart recorder. After 30-60 seconds, 0.2 ml of a solution, prepared by diluting a calf-skin collagen solution 1:9 with Tyrodes' Solution, was added to each cuvette. Platelet aggregation was evidenced by a decrease in optical density.
An ED50 value was then determined graphically.

chick rectum = experiment: Cascade assay: chick rectum; type: cell-based; settings: in vitro, smooth muscle stimulant ED50 scored
Method: (§1) (A) effects on the rat stomach, rat colon, chick rectum, and rabbit aorta in vitro (cascade assay);
(§2) The smooth muscle stimulant effects of test compounds were determined simultaneously in four different tissues that are known to be reactive to naturally occurring prostaglandins. Segments of rat stomach fundus, rat colon, chick rectum and rabbit aortic strip were obtained as described by: Vane, J. R., Brit. J. Pharmacol., 12: 344 (1957); Regoli, D. and Vane, J. R., Brit. J. Pharmacol., 23: 351 (1964); Mann, M. and West, G. B., Brit. J. Pharmacol., 5: 173 (1950); and Furchgott, R. F. and Bhadrakom, R., J. Pharmacol. Exper. Ther., 108: 129 (1953). One end of each preparation was tied to the bottom of a 10 ml tissue chamber and the other to a force displacement transducer (Grass FT-03) for continuous tension recording. The stomach, colon, and rectum segments were stretched to an initial tension of 1 g, while the aortic strip was subjected to 4 g. All preparations were left undisturbed for 1 hour prior to testing. […]
(§3) Test compounds were diluted from stock solutions so as to administer quantities ranging from 0.0001 to 100,000 ng in a volume of 0.5 ml. […] Maximal increases in tension after each dose were measured and the results were used to plot dose-response curves. […]
(§4) Activity in each tissue was scored according to the following scale: […]

rat = experiment: Effects on gastric secretion in the rat; type: in vivo; settings: pylorus ligated, 1.5 mg/kg s.c. twice (total 3.0 mg/kg), 4 hours
Method: (F) effect on gastric secretion in the rat;
A procedure based on that described by Lipman, W. (J. Pharm. Pharmacol., 21: 335 [1968]) was used to assess the influence of test compounds on gastric secretion. Rats of one sex weighing 150 to 200 g were randomly divided into groups of six animals each and fasted for 48 hours previous to the experiments, water being available ad libitum. The animals were anesthetized with ether, the abdomen opened through a midline incision, and the pylorus ligated. Test compounds were diluted from stock solution so as to administer a dose of 1.5 mg/kg in a volume equivalent to 1 ml/kg. Subcutaneous injections were applied immediately after surgery and again 2 hours later, so that a total dose of 3.0 mg/kg was administered. Dilutions were made with phosphate buffer (pH 7.38) as recommended by Lee et al. (Prostaglandins, 3: 29 [1973]) in order to insure adequate stability of drugs at the subcutaneous depot. […]
Four hours after pyllric ligation the animals were killed with ether, the cardias ligated, and the stomachs removed. The volume of gastric secretion was measured and the contents centrifuged at 5000 rpm for 10 minutes. […]
Volume and total acid values of the treated group were compared with those of the controls […]. Antisecretory activity was scored according to the following scale: […]

rabbit aortic strip = experiment: Cascade assay: rabbit aortic strip; type: cell-based; settings: in vitro, smooth muscle stimulant ED50 scored
Method: as §1, §2, §3, §4

rat colon = experiment: Cascade assay: rat colon; type: cell-based; settings: in vitro, smooth muscle stimulant ED50 scored
Method: as §1, §2, §3, §4

hypertensive rat = experiment: Effects on blood pressure in the hypertensive rat; type: in vivo; design: key: 0: Not significant at any time interval; 1: Significant at one time interval; 2: Significant at two time intervals; settings: 1 mg/kg intraperitoneal; 2, 4, 6 and 9 hours
Method: (I) effect on systolic blood pressure in the hypertensive rat
The acute anithypertensive activity of test compounds was determined in rats made hypertensive by the procedure of Grollman (Proc. Soc. Exper Biol. Med., 57: 102 [1944]). Female rats weighing between 60 and 100 g were anesthetized with ether, the right kidney approached through a flank retroperitoneal incision, decapsulated and tied with a figure-of-eight-ligature. The animals were left to recover and two weeks later were again anesthetized and the contralateral kidney removed. […]
Blood pressure was measured in the tail with an inflatable occluding cuff placed at the base of the extremity and a pulse detector located distally. The cuff was inflated to approximately 300 mmHg and was slowly deflated until pulsations appeared, indicating the level of systolic pressure; diastolic pressure was not recorded by this procedure. […] In all cases, three pressure readings were obtained in succession and mean values were calculated thereof.
Experiments were carried out in groups of five hypertensive rats in which systolic pressure was determined immediately before and 2, 4, 6 and 9 hours after intraperiotoneal administration of the test compound at a dose of 1 mg/kg. Drugs were diluted from stock solutions with phosphate buffer (Lee et al., Prostaglandins, 3: 29 [1973]), so as to inject this quantity in a volume of 1 ml/kg. […]

rat stomach fundus = experiment: Cascade assay: rat stomach fundus; type: cell-based; settings: in vitro, smooth muscle stimulant ED50 scored
Method: as §1, §2, §3, §4

man = settings: cited from earlier work
[5] = variety of mammals; cited from earlier work

CCCCC[C@H](O)/C=C/[C@H]1[C@H](O)CC(=O)[C@@H]1CCCCCCC(=O)O [PGE1]
effect on tracheal smooth muscle (tracheal smooth muscle): relax | effect on smooth muscle of the vas deferens [1]: contracts the smooth muscle of the vas deferens | aggregation of blood platelets (blood platelets): inhibits aggregation of blood platelets in vitro | release of the growth hormone (growth hormone): increase the release of the growth hormone | steroidogenesis in the adrenal glands (adrenal glands): stimulate stereoidogenesis in the adrenal glands | inhibition of human platelet aggregation, comparison with natural prostaglandin (human platelet [2]): displays similar activity | transmission along motor pathways in the central nervous system [3]: retards

COC(=O)CCCc1ccccc1CC1C(=O)CCC1/C=C(\c1ccccc1)[C@H](C)O (stereo partly drawn) [Example 4, Methyl 5,6,17,18,19,20-hexanor-4,7,-inter-o-phenylene-14-phenyl-15S-hydroxy-9-oxo-ent-prost-13E-en-1-oate]
Rat Uterus: activity value (ED50) (rat uterus): 0 (>10) | Platelet Aggregation: activity value (ED50) (human platelet [4]): 1 (>0.1 and ≤1.0) | Cascade, Rectum: activity value (ED50) (chick rectum): 0 (>10000) | Gastric Secretion: activity value (% decrease in acidity) (rat): 0 (<26) | Cascade, Aorta: activity value (ED50) (rabbit aortic strip): 0 (>10000) | Cascade, Colon: activity value (ED50) (rat colon): 0 (>10000) | Blood Pressure Hypertensive Rat: activity value (hypertensive rat): 0 | Cascade, Stomache: activity value (ED50) (rat stomach fundus): 0 (>10000)

CCCCC[C@H](O)/C=C/[C@H]1C=CC(=O)[C@@H]1CCCCCCC(=O)O [PGA1]
synthesis of the growth hormone (growth hormone): increases its synthesis | gastric secretion, man (man): exhibits similar activity in man

CCCCC[C@H](O)/C=C/[C@@H]1[C@@H](CCCCCCC(=O)O)[C@@H](O)C[C@H]1O [PGF1α]
steroidogenesis in the adrenal glands (adrenal glands): stimulate stereoidogenesis in the adrenal glands | luteolytic effect [5]: act as luteolytic factors
